Reference: patent US7491501B2, “Methods for identifying modulators of intracellular aggregate formation” (Auburn University, priority 2003, dated 2009)
Where a SMILES comes first, the peptide text is derived from it. [ ]: non-standard residue; d: D form. The star is where a group is joined. Nle = CCCC[C@H](N)C(=O)O; Cbz = O=C(OCc1ccccc1)*

Assays:
PC12 cells = test: Cell survival assay (MTS) in NGF-treated PC12 cells (Table 4); format: cell-based; conditions: PC12, NGF 50 ng/ml, MG132 25 μM, Aβ peptides 10 μM, 24 h, 100% without agent
Method: Cell Survival Assay—PC 2 cells were treated with 50 ng/ml NGF 24 h prior to addition of TRAF6 control or inhibitor peptide (75 μM). After 5 h, the cells were treated for an additional 24 h with or without MG132 (25 μM), Aβ peptide 42-1 or 1-42 (10 μM). Cell survival was measured by MTS assay.
All cells were treated with NGF (50 ng/ml), followed by addition of control or inhibitory TRAF6 peptide +/−Aβ peptide. Survival was measured by MTS assay.

[1] = tested on: p62 aggregates in HEK cells; test: p62 aggregate formation by confocal/fluorescence microscopy in transfected HEK cells; format: cell-based, Human; conditions: for large p62 aggregates upon inhibition of proteasomal degradation: MG132 data not shown; for size of aggregates of cotransfected p62, ubiquitin, TRAF6, tau, UbcH7: cotransfected cells (FIG. 9C), MG132 not shown; for formation of the p62 aggregates (microtubule dependence): data not shown
Method: Immunofluorescence staining—All steps were done at room temperature unless stated otherwise. The inclusion bodies were placed on poly-L-lysine coated 12 well slides (Cel-line/Erie Scientific Co., Portmouth, N.H.) and let partially dry. Inclusion bodies on the slides were fixed for 10 min in 3% paraformaldehyde (Electron Microscopy Sciences, Fort Washington, Pa.) and permeabilized with 0.1% Triton X-100 in PBS for 15 minutes. The inclusion bodies were incubated in blocking buffer (3% non fat dry milk in PBS) for 1 h, prior to incubation with primary antibodies at 4° C. overnight. After washing with PBS, the secondary antibody (Molecular Probes Inc., Eugene, Oreg.) in blocking buffer was applied for 1 h. After extensive washing in PBS, the samples were mounted using Vectashield (Vector Laboratories Inc., Burlingame, Calif.). The cells were fixed with 3% paraformaldehyde and processed similar to that of inclusion staining.
Cells were incubated with rabbit anti-myc IgG or mouse anti-HA IgG and labeled with Texas Red-conjugated anti-rabbit antibodies (red) or Oregon Green-conjugated anti-mouse antibodies (green), respectively. Merged images with overlapping immunoreactivity are shown in yellow. Note that cells expressing p62 lacking its UBA domain (p62ΔUBA) fail to form aggregates or to colocalize with ubiquitin. All experiments were replicated three independent times with similar results. Small aggregates of p62 colocalized with ubiquitin which was dependant upon the presence of a UBA domain but not the N-terminal portion of p62. Aggregation may impair the proteasome or, alternatively, impaired proteasome activity may seed aggregates. Alternatively, impairment of the proteasome may enhance the formation of p62 aggregates containing polyubiquitin.
In summary, through its UBA domain, p62 Interacts with polyubiquitinated substrates, and the UBA domain is necessary for aggregate formation.
Since TRAF6 localized to the large aggregates along with polyubiquitin (FIG. 2B), these aggregates may represent the failed attempt of the cell to rid itself of TRAF6-K63-polyubiquitinated substrates sequestered through interaction with the UBA domain. […] Altogether, these findings reveal that p62 binds proteins with K63 chains through its UBA domain and that p62 aggregates sequester TRAF6 as well as K63-polyubiquitinated substrates.
To further determine if the coassociation of tau-p62-TRAF6 and UbcH7 could be recapitulated in vitro, a cotransfection approach was undertaken. […] HEK cells were transfected with GFP-p62 followed by treatment or not with Aβ1-42 and Aβ42-1 peptides. […] This is consistent with the observation that microtubule dependent transport is important for the formation of p62 inclusions as assessed by treatment of the cells with nocodazole, a microtubule disrupting agent (9).

[2] = tested on: tau aggregates in PC12 cells; test: Tau aggregate formation in NGF-treated PC12 cells (Table 3); format: cell-based; conditions: PC12, NGF 50 ng/ml; MG132 25 μM, Aβ peptides 10 μM; 6% without agent
Method: PC12 cells were treated with NGF to induce tau polyubiquitination and treated or not with MG132 or Aβ and Aβ1-42, Aβ42-1. […] The relationship between aggregate formation and cell death was assessed (Tables, 3 & 4). Tau aggregate formation was observed upon treatment with MG1 32 or Aβ1-42 peptide. […] Furthermore, aggregate formation correlated with enhanced […] (Table 4).
All cells were treated with NGF (50 ng/ml), followed by addition of control or inhibitory TRAF6 peptide +/−Aβ peptide. Cells were stained for tau and 300 cells from two independent experiments were scored for the presence of tau aggregates or not.

GFP-p62-expressing cells = test: Live/Dead Viability/Cytotoxicity assay of cells with or without p62 aggregates; format: cell-based; conditions: With ALLN; cells scored by GFP-p62 expression
Method: Cell Death Assay—Live and dead cells were identified with LIVE/DEAD Viability/Cytotoxicity Kit (Molecular Probes, Eugene, Oreg.) according to the manufacturer's instruction.
The role of aggregates and their relationship to cell survival are controversial. […] Viability of cells with p62 aggregates employing the Live/Dead Viability/Cytotoxicity assay was determined (Table 1).

HEK cells = test: Cell survival by MTS reagent in p62-transfected HEK cells (FIG. 1D); format: cell-based, Human; conditions: ALLN (50 μM) 30 h
Method: In FIG. 1D HEK cells (in a 24-well plate) were transfected with myc-tagged wild-type p62, p62ΔUBA, or p62ΔN-term along with HA-tagged ubiquitin constructs. After 24 h of transfection, the cells were treated with or without ALLN (50 μM) for 30 h. Cell survival was assessed by the addition of MTS reagent for 2 h. Values plotted in FIG. 1D are means±standard error of the means of four different experiments.

ubiquitinated tau = test: Accumulation of ubiquitinated tau in tau-transfected HEK cells treated with degradation inhibitors; format: cell-based, Human; conditions: 50 μM ALLN, 5 μM MG132 or 0.15 mM chloroquine, 24 h
Text: Depletion of p62 levels by transfection of antisense (AS) p62 retarded the turnover of p62 (FIG. 12A). […] Collectively these findings reveal that tau turnover is regulated by both the expression of p62 and the presence of K63 polyubiquitin chains carried by tau. The best known function of protein ubiquitination is to target proteins for degradation by the 26S proteasome. However, K63 chains have been hypothesized to play a role aside of targeting proteins to the proteasome. To test whether K63 chains are able to signal proteasomal degradation, tau was first ubiquitinylated in an in vitro reaction with K63 ubiquitin. The protein complex containing polyubiquitinated tau on beads was then incubated with 26S proteasome supplemented with MgCl2 and ATP. The polyubiquitinated chains disappeared after incubation with purified 26S proteasome (FIG. 12B). To determine whether the observed disappearance of polyubiquitinated products is due to degradation or to the deubiquitinating activity in the 26S proteasome fraction, a deubiquitination inhibitor, Ub-H was added to the reaction. […] To test if ubiquitinated tau was targeted to the proteasome, HEK cells cotransfected with His-tau were treated with ALLN, MG132 or chloroquine. Both ALLN and MG132 block proteasome degradation, whereas chloroquine blocks degradation through the lysosome. It was observed that ubiquitinated tau accumulates in the presence of proteasome inhibitors, but not chloroquine, thus confirming that polyubiquitinated tau is degraded by the proteasome (FIG. 12C).

tau polyubiquitination = test: NGF-induced tau polyubiquitination in PC12 cells (FIG. 13A); format: cell-based; conditions: control not shown
Method: (§1) The region spanning amino acids 225-251 is necessary for the interaction of p62 with TRAF6. The peptide containing TRAF6 binding motif in p62 along with the hydrophobic sequence containing the cell-permeable motif from Kaposi fibroblast growth factor sequence, […]-[…] (SEQ ID NO. 4) and control peptide […]-[…] (SEQ ID NO. 5) was synthesized. As a preliminary step, PC12 cells were pretreated with various concentrations of peptide for 5 h, followed by NGF stimulation for 15 min and immunoprecipitation with TRAF6 and western blotted with p62. […] The peptide was then tested for its ability to block NGF-induced tau polyubiquitination (FIG. 13A).

[3] = tested on: internalization of NGF by PC12 cells; test: Internalization of NGF, 125I-NGF binding assay in PC12 cells (FIG. 15D); format: cell-based; conditions: PC12 cells pretreated with peptide (150 μM); control not shown
Method: Additionally, PC12 cells were pretreated or not with TRAF6 peptide (150 μM) followed by measurement of internalized receptor employing 125I-NGF binding assay (FIG. 15D). […] Similarly, the level of internalized NGF was measured in PC12 cells transfected with wild-type ubiquitin, K48R or K63R ubiquitin mutants (FIG. 15E). Transfection of ubiquitin, or K48R mutant was without any effect on internalization of NGF. By comparison, transfection of K63R ubiquitin mutant totally abrogated internalization of the ligand. […] Thus, p62 serves as an adaptor, as well as, a scaffold for TRAF6-directed ubiquitination and K63 chains play a signaling role for internalization and sorting of the receptor.

[4] = biological target: T1, interaction of p62 with TRAF6 (Rattus norvegicus, UniProt B5DF45); test: TRAF6 immunoprecipitation and Western blot for p62/UbcH7 in NGF-stimulated PC12 cells; format: cell-based; conditions: 150 μM peptide 5 hours, NGF 15 min
T1 construct: followed by NGF stimulation for 15 min and immunoprecipitation of TRAF6 followed by Western blotting for p62; endogenous in cells; host or cells: PC12
T1 sequence (B5DF45 whole entry): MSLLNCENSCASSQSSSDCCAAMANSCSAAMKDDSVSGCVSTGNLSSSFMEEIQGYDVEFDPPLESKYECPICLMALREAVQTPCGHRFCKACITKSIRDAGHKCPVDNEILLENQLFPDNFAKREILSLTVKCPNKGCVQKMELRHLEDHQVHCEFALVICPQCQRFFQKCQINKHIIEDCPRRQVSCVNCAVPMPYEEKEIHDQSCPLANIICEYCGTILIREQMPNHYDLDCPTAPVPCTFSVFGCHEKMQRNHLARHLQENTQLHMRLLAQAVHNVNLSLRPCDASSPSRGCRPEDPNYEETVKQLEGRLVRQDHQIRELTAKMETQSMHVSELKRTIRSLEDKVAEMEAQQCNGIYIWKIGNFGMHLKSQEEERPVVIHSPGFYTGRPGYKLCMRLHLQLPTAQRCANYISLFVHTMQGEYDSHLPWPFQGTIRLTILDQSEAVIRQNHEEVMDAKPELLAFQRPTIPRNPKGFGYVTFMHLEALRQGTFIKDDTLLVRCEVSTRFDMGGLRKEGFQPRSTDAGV
T1 sequence (D3Z8W5 1-154 partner): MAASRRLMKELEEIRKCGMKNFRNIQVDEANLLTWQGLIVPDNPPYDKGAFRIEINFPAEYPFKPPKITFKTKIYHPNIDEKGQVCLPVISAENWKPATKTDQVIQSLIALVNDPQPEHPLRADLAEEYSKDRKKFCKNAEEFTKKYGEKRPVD
Method: Immunoprecipitation and Western blotting—Each mg of lysate/inclusion bodies was incubated with 41 ng of primary antibody at 4° C. for 3 h and then with 50 μl of 50% agarose-coupled secondary antibody for 2 more hours at 4 C. The beads were washed three times with lysis buffer, eluted by adding SDS-PAGE sample buffer, and subjected to SDS-PAGE in 7.5-12% acrylamide gels. Immunoblotting was performed on nitrocellulose membranes and analyzed by western blotting with ECL detection reagents (Amersham Biosciences).
as §1
(§2) The peptide containing the TRAF6-binding motif in p62 along with the hydrophobic sequence containing the cell-permeable motif from Kaposi fibroblast growth factor signal sequence […]-[…] (SEQ ID NO. 4) and control peptide […]-[…] (SEQ ID NO. 5) was synthesized. As a preliminary step, PC12 cells were pretreated with different concentrations (75-300 μM) of TRAF6 peptide for 5 hours followed by NGF stimulation for 15 min and immunoprecipitation of TRAF6 followed by Western blotting for p62. […] To address whether TRAF6 peptide affects the interaction of p62 and UbcH7 with TRAF6, PC12 cells were treated with or without 150 μM of control peptide or TRAF6 peptide for 5 hours and then stimulated with NGF for 15 min. By immunoprecipitating TRAF6, TRAF6 peptide (150 μM) abrogated the interaction of p62 with TRAF6, but not UbcH7, upon NGF treatment (FIG. 8A). […] The ability of the TRAF6 peptide to impair the ubiquitination process was investigated. Lysates recovered from NGF treated cells were immunoprecipitated with TrkA receptor antibody and blotted for ubiquitin or the receptor (FIG. 15B). […] The ability of the peptide to interrupt the formation of the functional TrkA-p62-TRAF6-UbcH7 complex on NGF stimulation as well was also investigated. TrkA was immunoprecipitated and blotted for the presence of each protein in the complex (FIG. 15C).

TrkA = test: NGF-dependent TrkA ubiquitination and TrkA complex formation in PC12 cells (FIG. 15B, 15C); format: cell-based; conditions: NGF treated, TrkA immunoprecipitation
Method: as §2

Compound: Aβ1-42: neurotoxic amyloid beta peptide
- cell survival, agent alone (Control, no TRAF6 peptide) (PC12 cells): 45.7%
- formation of p62 aggregates by Aβ peptide ([1]; HEK cells transfected with GFP-p62 (FIG. 9D)): induced formation of p62 aggregates
- cells with tau aggregates, agent alone (Control, no TRAF6 peptide) [2]: 72%

Compound: CCCC[C@@H](C=O)NC(=O)[C@H](CC(C)C)NC(=O)[C@H](CC(C)C)NC(C)=O [ALLN, N-acetyl-Leu-Leu-Norleu-AL] (Ac-Leu-Leu-[Nle]-aldehyde)
- % of cells, With aggregates, Alive (GFP-p62-expressing cells): 48%
- % of cells, With aggregates, Dead (GFP-p62-expressing cells): 52%
- % of cells, Without aggregates, Alive (GFP-p62-expressing cells): 38%
- % of cells, Without aggregates, Dead (GFP-p62-expressing cells): 62%
- cell survival-promoting effects of p62 (HEK cells): completely inhibited
- accumulation of ubiquitinated tau (ubiquitinated tau): accumulates
- size of the aggregates ([1]; HEK cells, ALLN (50 μM) 24 h, 6 to 8 microns without ALLN): 12 to 14 microns
- GFP-p62-expressing cells accumulating large p62 aggregates ([1]; HEK cells, ALLN treatment): 100%
- average number of aggregates per cell ([1]; HEK cells, with versus without ALLN): essentially similar
- large p62 aggregates upon inhibition of proteasomal degradation ([1]; HEK cells): large aggregates of p62 which contained sequestered polyubiquitin were visible
- size of aggregates of cotransfected p62, ubiquitin, TRAF6, tau, UbcH7 [1]: increased in size

Compound: AAVALLPAVLLALLAP-ESASGASADASVNFLK [control peptide]
- NGF-induced tau polyubiquitination (tau polyubiquitination): not
- internalization of NGF [3]: not
- interaction of p62 with TRAF6 [4]: without effect
- NGF-dependent ubiquitination of TrkA (TrkA): no effect

Compound: CC[C@]1(O)C[C@@H]2CN(CCc3c([nH]c4ccccc34)[C@@](C(=O)OC)(c3cc4c(cc3OC)N(C)[C@H]3[C@@](O)(C(=O)OC)[C@H](OC(C)=O)[C@]5(CC)C=CCN6CC[C@]43[C@@H]65)C2)C1 [vinblastine]
- formation of the p62 aggregates (microtubule dependence) [1]: prevented their formation

Compound: COC(=O)Nc1nc2ccc(C(=O)c3cccs3)cc2[nH]1 [nocodazole]
- formation of the p62 aggregates (microtubule dependence) [1]: prevented their formation

Compound: CCN(CC)CCCC(C)Nc1ccnc2cc(Cl)ccc12 (centres unmarked) [chloroquine]
- accumulation of ubiquitinated tau (ubiquitinated tau): not

Compound: CC(C)C[C@@H](C=O)NC(=O)[C@H](CC(C)C)NC(=O)[C@H](CC(C)C)NC(=O)OCc1ccccc1 [MG132, Z-Leu-Leu-Leu-CHO] (Cbz-Leu-Leu-Leu-aldehyde)
- cell survival, agent alone (Control, no TRAF6 peptide) (PC12 cells): 44.3%
- accumulation of ubiquitinated tau (ubiquitinated tau): accumulates
- large p62 aggregates upon inhibition of proteasomal degradation ([1]; HEK cells): large aggregates of p62 which contained sequestered polyubiquitin were visible
- size of aggregates of cotransfected p62, ubiquitin, TRAF6, tau, UbcH7 [1]: increased in size
- cells with tau aggregates, agent alone (Control, no TRAF6 peptide) [2]: 82%
